Reference: PMC3551932, “STK295900, a Dual Inhibitor of Topoisomerase 1 and 2, Induces G2 Arrest in the Absence of DNA Damage” (PLoS ONE, 2013)

Tests used:
HeLa cells [1] = assay: Cell growth inhibition assay, HeLa; type: cell-based, human; conditions: Table 2 comparison, growth up to 4 days
Excerpt: (§1) Human epitheloid cervical carcinoma HeLa cells, human breast adenocarcinoma MCF7 and MDA-MB-231cells, human hepatocellular carcinoma HepG2 cells, human colon adenocarcinoma HT-29 cells, and human colorectal carcinoma HCT-116 cells were purchased from ATCC® and maintained in DMEM medium. Human prostate carcinoma PC-3 cells (purchased from ATCC®), human gastric carcinoma SNU-484 and SNU-601(obtained from Korean Cell Line Bank (KCLB)), human leukemia K-562 and HL-60 cells (purchased from ATCC®), immortalized human prostate epithelial 267B1cells, and immortalized human embryonic lung fibroblast MRC5CV1 cells were maintained in RPMI 1640 medium whereas immortalized retinal pigment epithelial hTERT RPE-1 cells (purchased from ATCC®) were maintained in DMEM/F12 medium. All cell lines were cultured in media supplemented with 10% fetal bovine serum, 100 U/ml penicillin, and […] streptomycin at 37°C in a 5% CO2 incubator.
(§2) Cells were seeded at the appropriate amount (1–2×10^3 cells) in triplicate in 96-well plates for 24 h and then treated with various concentrations of STK295900. Cell growth was determined by using EZ-CyTox cell viability assay kit (Daeil Lab. Service, Seoul, Korea). Ten microliters of WST solution were added to the treated cells at 24, 48, 72, and 96 h. Cells were further incubated at 37°C for 2 h and the absorbance was measured at 450 nm.

MCF7 cells = assay: Cell growth inhibition assay, MCF7; type: cell-based, human; conditions: Table 2 comparison, MCF7, growth up to 4 days
Excerpt: as §1, §2

HepG2 cells = assay: Cell growth inhibition assay, HepG2; type: cell-based, human; conditions: Table 2 comparison, HepG2, growth up to 4 days
Excerpt: as §1, §2

HT-29 cells = assay: Cell growth inhibition assay, HT-29; type: cell-based, human; conditions: Table 2 comparison, HT-29, growth up to 4 days
Excerpt: as §1, §2

hTERT RPE-1 cells = assay: Cell growth inhibition assay, hTERT RPE-1; type: cell-based, human; conditions: Table 2 comparison, hTERT RPE-1, non-cancer, growth up to 4 days
Excerpt: as §1, §2

267B1 cells = assay: Cell growth inhibition assay, 267B1; type: cell-based, human; conditions: Table 2 comparison, 267B1, non-cancer, growth up to 4 days
Excerpt: as §1, §2

MRC5CV1 cells = assay: Cell growth inhibition assay, MRC5CV1; type: cell-based, human; conditions: Table 2 comparison, MRC5CV1, non-cancer, growth up to 4 days
Excerpt: as §1, §2

[2] = test system: cancer (HeLa, MCF7, HepG2, and HT-29) and non-cancerous cell lines (hTERT RPE-1, 267B1, and MRC5CV1); assay: Cell growth inhibition assay, cancer and non-cancerous cell lines compared; type: cell-based, human
Excerpt: as §1, §2

HeLa cells [3] = assay: Immunoblot of cell cycle and DNA damage checkpoint proteins; type: cell-based, human; conditions: 24 h, STK295900 1 or 5 µM, camptothecin 10 µM, etoposide 10 µM
Method: (§3) Cells were lysed with cold RIPA buffer (50 mM Tris-HCl pH 8.0, 150 mM NaCl, 1% NP-40, 0.5% sodium deoxycholate, 0.1% SDS) containing freshly added protease inhibitor, phosphatase inhibitor (SIGMA), 1 mM DTT, and 1 mM Na3VO4 on ice for 1 h. Whole cell lysates were centrifuged at 15,000 rpm for 20 min and then the supernatant was transferred into a new tube. An appropriate amount of cell lysate was subjected to SDS-PAGE. Then the resolved proteins were transferred onto a PVDF membrane (Bio-Rad) for immunoblot analyses with specific antibodies. The proteins were detected using chemiluminescence solution (Thermo Scientific, Rockford, IL).
(A) Flow cytometric analysis for cell cycle distribution. HeLa cells were treated with the indicated concentrations of STK295900 for 24 h. Treated cells were then stained with propidium iodide (PI) and processed for cell cycle analysis. The bar graph represents the mean percentage of each cell cycle phase ± SD from three independent experiments. * = p<0.05 versus the respective G1, S, or G2/M phase of DMSO-treated cells. (B) Mitotic index of STK295900. HeLa cells were treated with the indicated concentrations of STK295900 for 24 h. Cells were then stained with Hoechst 33342 and mitotic cells were counted. […] (C) Cell cycle related proteins expression. […] Treated cells were lysed and subjected to immunoblot analyses with antibodies against cyclin A, cyclin B1, phospho-Histone H3 (S10), and Histone H3. β-actin was used as a loading control.
(A) G2/M transition regulated proteins expression. […] GAPDH was used as a loading control. (B) DNA damage-checkpoint related proteins. […] Images were analyzed on a fluorescence microscope.

[4] = target: T1, calf thymus topoisomerase 1 (Bos taurus, UniProt F1MN93); assay: Supercoiled DNA relaxation assay for topoisomerase 1; type: biochemical
T1 construct: purified calf thymus topoisomerase 1; purchased Takara Bio, Shiga, Japan; host or cells: calf thymus (tissue-purified)
T1 sequence (F1MN93 1-767): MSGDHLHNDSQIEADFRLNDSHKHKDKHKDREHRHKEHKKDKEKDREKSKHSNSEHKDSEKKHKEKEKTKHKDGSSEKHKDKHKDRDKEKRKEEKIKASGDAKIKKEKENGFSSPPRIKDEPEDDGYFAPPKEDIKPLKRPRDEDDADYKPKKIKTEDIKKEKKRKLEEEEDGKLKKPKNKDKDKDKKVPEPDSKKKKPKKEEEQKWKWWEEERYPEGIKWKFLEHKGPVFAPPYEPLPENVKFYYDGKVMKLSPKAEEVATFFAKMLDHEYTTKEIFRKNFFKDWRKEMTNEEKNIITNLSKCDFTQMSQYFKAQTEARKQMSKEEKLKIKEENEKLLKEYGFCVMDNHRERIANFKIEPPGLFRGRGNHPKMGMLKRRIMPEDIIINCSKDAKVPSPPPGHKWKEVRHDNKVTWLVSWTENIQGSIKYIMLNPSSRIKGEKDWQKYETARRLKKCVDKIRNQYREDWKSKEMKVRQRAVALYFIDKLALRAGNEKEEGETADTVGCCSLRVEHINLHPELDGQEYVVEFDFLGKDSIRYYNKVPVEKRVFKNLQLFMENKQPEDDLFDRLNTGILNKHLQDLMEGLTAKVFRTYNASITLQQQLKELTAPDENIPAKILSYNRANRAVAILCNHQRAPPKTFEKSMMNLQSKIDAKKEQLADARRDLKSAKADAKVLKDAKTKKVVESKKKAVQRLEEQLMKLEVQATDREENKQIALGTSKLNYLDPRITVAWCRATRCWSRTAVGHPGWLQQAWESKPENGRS

HeLa cells [5] = assay: Antagonistic effect on Top poison-induced DNA damage (γ-H2A.X immunoblot); type: cell-based, human; conditions: DMSO pretreated, 10 µM or 30 µM, 1 h
Method: as §3
(§4) Supercoiled DNA relaxation assay for (A) topoisomerase 1 (Top 1) and (B) topoisomerase 2 (Top 2). Supercoiled pBR322 plasmid DNA was incubated at 37°C for 30 min with Top 1 enzyme (A) or Top 2α (B) in the presence of various concentrations of indicated compounds. DNA samples were separated by electrophoresis on a 1% agarose gel, stained with ethidium bromide, and visualized by UV light. (−), supercoiled DNA alone; oc, open circular; sc, supercoiled. […] HeLa cells were pretreated with 10 µM of STK295900 for 30 min and then incubated with the indicated concentrations of camptothecin for 1 h. Treated cells were lysed and subjected to immunoblot analyses with antibody against γ-H2A.X. β-actin was used as a loading control. […] HeLa cells were pretreated with STK295900 at 10, 20, 30, or 50 µM or ICRF-193 at 10 µM for 30 min. […] Treated cells were then lysed and subjected to immunoblot analyses with antibody against γ-H2A.X. β-actin was used as a loading control.
The lysates were subjected to immunoblot analyses with γ-H2A.X antibody.

human topoisomerase 2α = human topoisomerase 2α (Homo sapiens, UniProt P11388); assay: Supercoiled DNA relaxation assay for topoisomerase 2α; type: biochemical; conditions: pBR322, 37°C, 30 min
Sequence of human topoisomerase 2α (P11388 whole entry): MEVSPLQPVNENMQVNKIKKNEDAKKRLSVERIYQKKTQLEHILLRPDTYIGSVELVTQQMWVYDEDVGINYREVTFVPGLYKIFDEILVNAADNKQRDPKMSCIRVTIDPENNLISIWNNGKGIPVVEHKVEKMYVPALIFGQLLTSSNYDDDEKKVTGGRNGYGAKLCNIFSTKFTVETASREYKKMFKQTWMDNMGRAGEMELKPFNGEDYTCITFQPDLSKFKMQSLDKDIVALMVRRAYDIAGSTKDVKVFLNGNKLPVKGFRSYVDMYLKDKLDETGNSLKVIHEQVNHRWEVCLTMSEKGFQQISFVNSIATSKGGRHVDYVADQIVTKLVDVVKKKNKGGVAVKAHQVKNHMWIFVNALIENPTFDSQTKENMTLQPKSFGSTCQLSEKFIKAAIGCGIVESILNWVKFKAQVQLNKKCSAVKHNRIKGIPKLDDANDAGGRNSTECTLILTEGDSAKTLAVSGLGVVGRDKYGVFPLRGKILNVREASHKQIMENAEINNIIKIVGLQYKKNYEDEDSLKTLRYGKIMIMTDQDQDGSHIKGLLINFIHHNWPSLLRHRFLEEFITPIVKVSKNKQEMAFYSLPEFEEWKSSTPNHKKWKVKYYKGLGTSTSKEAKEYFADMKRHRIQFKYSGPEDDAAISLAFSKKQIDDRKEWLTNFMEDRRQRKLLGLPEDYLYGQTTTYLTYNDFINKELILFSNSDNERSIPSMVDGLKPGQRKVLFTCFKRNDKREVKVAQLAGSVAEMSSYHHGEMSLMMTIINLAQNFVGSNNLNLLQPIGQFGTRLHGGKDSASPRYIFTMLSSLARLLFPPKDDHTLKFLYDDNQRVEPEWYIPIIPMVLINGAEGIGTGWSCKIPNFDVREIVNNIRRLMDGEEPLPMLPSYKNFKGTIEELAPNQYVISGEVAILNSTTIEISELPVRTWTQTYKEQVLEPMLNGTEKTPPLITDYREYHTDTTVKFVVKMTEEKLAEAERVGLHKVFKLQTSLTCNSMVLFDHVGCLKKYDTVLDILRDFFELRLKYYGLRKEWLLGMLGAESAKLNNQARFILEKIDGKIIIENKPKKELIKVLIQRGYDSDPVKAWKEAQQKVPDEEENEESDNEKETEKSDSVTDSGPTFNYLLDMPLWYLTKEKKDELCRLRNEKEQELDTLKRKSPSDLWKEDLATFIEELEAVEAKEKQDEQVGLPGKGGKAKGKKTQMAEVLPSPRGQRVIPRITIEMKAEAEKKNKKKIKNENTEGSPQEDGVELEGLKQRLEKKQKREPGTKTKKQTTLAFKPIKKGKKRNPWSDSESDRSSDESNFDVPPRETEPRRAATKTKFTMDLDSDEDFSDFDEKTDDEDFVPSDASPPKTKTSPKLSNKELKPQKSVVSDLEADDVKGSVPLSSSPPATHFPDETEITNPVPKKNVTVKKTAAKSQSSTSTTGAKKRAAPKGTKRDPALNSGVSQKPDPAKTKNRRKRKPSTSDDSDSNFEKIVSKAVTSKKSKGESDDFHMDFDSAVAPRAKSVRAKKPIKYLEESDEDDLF
Method: After incubation, the reaction was terminated by addition of 2 µl of 10% SDS. The reaction mixtures were treated with 50 µg/ml proteinase K for 30 min at 37°C and then DNA was extracted with CIA (chloroform:isoamyl alcohol, 24∶1). Samples were resolved by electrophoresis on a 1% agarose gel. After staining the electrophoresed gel with ethidium bromide, DNA bands were visualized by UV light and photographed on Gel Doc XR.
as §4

Compound	IC50 (HeLa cells [1]; Homo sapiens, 96 h) [nM]	IC50 (MCF7 cells; Homo sapiens, MCF7, 96 h) [nM]	IC50 (HepG2 cells; Homo sapiens, HepG2, 96 h) [nM]	IC50 (HT-29 cells; Homo sapiens, HT-29, 96 h) [nM]	IC50 (hTERT RPE-1 cells; Homo sapiens, hTERT-RPE1, 96 h) [nM]	IC50 (267B1 cells; Homo sapiens, 96 h) [nM]	IC50 (MRC5CV1 cells; Homo sapiens, 96 h) [nM]	Phosphorylation of Cdk1 at T161 (HeLa cells [3]; nocodazole 200 ng/ml)	Wee1 and Cdc25C levels (HeLa cells [3]; nocodazole 200 ng/ml)	cyclin A and cyclin B1 levels (HeLa cells [3]; nocodazole 200 ng/ml)	inhibitory phosphorylation of Cdk1 (T14 and Y15) (HeLa cells [3]; nocodazole 200 ng/ml)	Top 2α-mediated DNA relaxation (human topoisomerase 2α)	further results
CC[C@@]1(O)C(=O)OCc2c1cc1n(c2=O)Cc2cc3ccccc3nc2-1 [Camptothecin]	20	30	20	30	< 10	< 10	20	strongly enhanced	reduction of Cdc25C	accumulations of cyclin A and cyclin B1	abundance		IC50 ([2]; Homo sapiens, all cell lines tested (HeLa, MCF7, HepG2, HT-29, hTERT RPE-1, 267B1, MRC5CV1)): < 30 nM; p53 and p21 levels (HeLa cells [3]): significantly increased; phosphorylation-dependent activation of ATM (S1981), ATR (S428), Chk1 (S345), and Chk2 (T68) (HeLa cells [3]): activation of ATM, Chk1, and Chk2; Top 1-mediated DNA relaxation [4]: inhibited DNA relaxation activity of Top 1 in a dose-dependent manner; γ-H2A.X induction in control cells (immunoblot) (HeLa cells [5]): strongly induced γ-H2A.X
COc1cc([C@@H]2c3cc4c(cc3[C@@H](O[C@@H]3O[C@@H]5CO[C@@H](C)O[C@H]5[C@H](O)[C@H]3O)[C@H]3COC(=O)[C@H]23)OCO4)cc(OC)c1O [Etoposide]	300	13200	840	10300	450	390	1290					inhibited Top 2α activity by reducing the relaxed DNA and increasing nicked-open-circular DNA	
CCOc1ccc(-c2nc3ccc(-c4nc5ccc(N6CCN(C)CC6)cc5[nH]4)cc3[nH]2)cc1 [Hoechst 33342]													IC50 (HeLa cells [1]): 4560 nM; IC50 (MCF7 cells): 200 nM; IC50 (HepG2 cells): 220 nM; IC50 (HT-29 cells): 650 nM; IC50 (hTERT RPE-1 cells): 1010 nM; IC50 (267B1 cells): 840 nM; IC50 (MRC5CV1 cells): 350 nM; selectivity of toxicity, cancer versus non-cancer cells ([2]; cancer (HeLa, MCF7, HepG2, HT-29) vs non-cancer (hTERT RPE-1, 267B1, MRC5CV1)): diverse and non-selective against cancer cells
COC(=O)Nc1nc2ccc(C(=O)c3cccs3)cc2[nH]1 [nocodazole]								strongly enhanced	undetectable levels of Wee1 but activation of Cdc25C	high level of cyclin B1 and undetectable level of cyclin A	could not be detected		Histone H3 phosphorylation at S10 (HeLa cells [3]; nocodazole 200 ng/ml): detected only in cells treated with nocodazole
ICRF-193												accumulation of supercoiled DNA	
